Key:
[1] = test system: Myzus persicae; assay: Myzus persicae spray test; type: in vivo; settings: 20 ppm, bell pepper plants, after 6 days
Excerpt: Myzus persicae—Spray Test Solvent: 14 parts by weight of dimethylformamide Emulsifier: alkylaryl polyglycol ether An appropriate active ingredient formulation is produced by dissolving 1 part by weight of active ingredient with the stated parts by weight of solvent and making the solution up to the desired concentration with water containing an emulsifier concentration of 1000 ppm. Further test concentrations are produced by diluting the formulation with emulsifier-containing water. If the addition of ammonium salts or/and penetrants is required, these are each added in a concentration of 1000 ppm to the formulation solution. Bell pepper plants (Capsicum annuum) severely infested with the green peach aphid (Myzus persicae) are treated by spraying with the active ingredient formulation in the desired concentration. After 6 days, the kill rate in % is determined. 100% means that all of the aphids have been killed; 0% means that none of the aphids have been killed.

[2] = test system: Nezara viridula; assay: Nezara viridula spray test (plants sprayed, then infected); type: in vivo; settings: 500 g/ha, barley plants, after 4 days
Excerpt: Nezara viridula—Spray Test Solvent: 78.0 parts by weight of acetone • • 1.5 parts by weight of dimethylformamide Emulsifier: alkylaryl polyglycol ether An appropriate active ingredient formulation is produced by dissolving 1 part by weight of active ingredient with the stated parts by weight of solvent and making the solution up to the desired concentration with water containing an emulsifier concentration of 1000 ppm. Further test concentrations are produced by diluting the formulation with emulsifier-containing water. Barley plants (Hordeum vulgare) are sprayed with an active ingredient formulation of the desired concentration and are infected with larvae of the Southern green shield bug (Nezara viridula). After 4 days, efficacy in % is determined. 100% means that all of the shield bugs have been killed; 0% means that none of the shield bugs have been killed.

[3] = test system: Diabrotica balteata; assay: Diabrotica balteata spray test; type: in vivo; settings: Diabrotica balteata, 168 h; 100 g/ha (=32 μg/cavity), wheat grains, after 7 days; read-out: efficacy
Excerpt: Diabrotica balteata—Spray Test Solvent: 78 parts by weight of acetone • • 1.5 parts by weight of dimethylformamide Emulsifier: alkylaryl polyglycol ether An appropriate active ingredient formulation is produced by dissolving 1 part by weight of active ingredient with the stated parts by weight of solvent and making the solution up to the desired concentration with water containing an emulsifier concentration of 1000 ppm. Further test concentrations are produced by diluting the formulation with emulsifier-containing water. Pre-swollen wheat grains (Triticum aestivum) are incubated in a multiwell plate filled with agar and a little water for one day (5 seed grains per cavity). The germinated wheat grains are sprayed with an active ingredient formulation of the desired concentration. Subsequently, each cavity is infected with 10-20 beetle larvae of Diabrotica balteata. After 7 days, efficacy in % is determined. 100% means that all wheat plants have grown as in the untreated, uninfected control; 0% means that no wheat plant has grown.

[4] = test system: Spodoptera frugiperda; assay: Spodoptera frugiperda spray test (maize leaf discs); type: in vivo; settings: Spodoptera frugiperda, foliar, 168 h, after 7 days, read-out: efficacy
Excerpt: Spodoptera Frusiperda—Spray Test Solvent: 78.0 parts by weight of acetone • • 1.5 parts by weight of dimethylformamide Emulsifier: alkylaryl polyglycol ether An appropriate active ingredient formulation is produced by dissolving 1 part by weight of active ingredient with the stated parts by weight of solvent and making the solution up to the desired concentration with water containing an emulsifier concentration of 1000 ppm. Further test concentrations are produced by diluting the formulation with emulsifier-containing water. Leaf discs of maize (Zea mays) are sprayed with an active ingredient formulation of the desired concentration and, after drying, populated with caterpillars of the fall armyworm (Spodoptera frugiperda). After 7 days, efficacy in % is determined. 100% means that all the caterpillars have been killed; 0% means that no caterpillar has been killed.

[5] = test system: Meloidogyne incognita; assay: Meloidogyne incognita test; type: in vivo; settings: Meloidogyne incognita, 336 h, lettuce, gall formation after 14 days, read-out: nematicidal efficacy
Excerpt: Meloidogyne incognita Test Solvent: 125.0 parts by weight of acetone An appropriate active ingredient formulation is produced by mixing 1 part by weight of active ingredient with the stated amount of solvent and diluting the concentrate to the desired concentration with water. Vessels are filled with sand, active ingredient solution, an egg/larvae suspension of the southern root-knot nematode (Meloidogyne incognita) and lettuce seeds. The lettuce seeds germinate and the plants develop. The galls develop on the roots. After 14 days, the nematicidal efficacy in % is determined by the formation of galls. 100% means that no galls were found; 0% means that the number of galls on the treated plants corresponds to the untreated control.

[6] = test system: Spodoptera frugiperda; assay: Spodoptera frugiperda spray test (cotton leaves); type: in vivo; settings: 4 ppm, after 7 days
Excerpt: Spodoptera Frustiperda—Spray Test Solvent: 14 parts by weight of dimethylformamide Emulsifier: alkylaryl polyglycol ether An appropriate active ingredient formulation is produced by dissolving 1 part by weight of active ingredient with the stated parts by weight of solvent and making the solution up to the desired concentration with water containing an emulsifier concentration of 1000 ppm. Further test concentrations are produced by diluting the formulation with emulsifier-containing water. If the addition of ammonium salts or/and penetrants is required, these are each added in a concentration of 1000 ppm to the formulation solution. Cotton leaves (Gossypium hirsutum) are sprayed with an active ingredient formulation of the desired concentration and populated with caterpillars of the armyworm (Spodoptera frugiperda). After 7 days, the kill in % is determined. 100% means that all the caterpillars have been killed; 0% means that none of the caterpillars have been killed.

[7] = log P by HPLC on reversed-phase column (C18); type: physicochemical; settings: LC-UV, neutral range, ammonium acetate/acetonitrile, read-out: log P (neutral)
Description: log P Values The log P values were determined according to EEC Directive 79/831 Annex V.A8 by HPLC (high-performance liquid chromatography) on a reversed-phase column (C18) using the following methods: ^[a] […] Calibration was carried out using straight-chain alkan-2-ones (having 3 to 16 carbon atoms) with known log P values. The values between successive alkanones are determined by linear regression.

[8] = test system: Tetranychus urticae; assay: Tetranychus urticae spray test, OP-resistant; type: in vivo; settings: 500 g/ha, bean leaf discs, after 6 days
Excerpt: Tetranychus urticae—Spray Test, OP-Resistant
Solvent: 78.0 parts by weight of acetone • • 1.5 parts by weight of dimethylformamide
Emulsifier: alkylaryl polyglycol ether
An appropriate active ingredient formulation is produced by dissolving 1 part by weight of active ingredient with the stated parts by weight of solvent and making the solution up to the desired concentration with water containing an emulsifier concentration of 1000 ppm. Further test concentrations are produced by diluting the formulation with emulsifier-containing water.
Discs of bean leaves (Phaseolus vulgaris) infested with all stages of the greenhouse red spider mite (Tetranychus urticae) are sprayed with an active ingredient formulation of the desired concentration.
After 6 days, efficacy in % is determined. 100% means that all the spider mites have been killed; 0% means that no spider mites have been killed.

Row | chromatographic logP [7] | Structure (SMILES) | efficacy (kill rate) [1] | efficacy [2] | pest or weed control at 100 g/ha [3] | pest or weed control at 100 g/ha [4] | pest or weed control at 20 ppm [5] | efficacy (kill) [6] | efficacy [8]
1 |  | CCS(=O)(=O)c1ccc(-n2ncn(-c3ccc(C#N)cc3)c2=O)nc1-c1nc2cc(C(F)(F)C(F)(F)F)nnc2n1C [Example I-06] | 95% | 100% | 100% | 100% |  |  | 
2 | 3.53 | CCS(=O)(=O)c1ccc(-n2ncn(-c3ccc(F)cc3)c2=O)nc1-c1nc2cc(C(F)(F)C(F)(F)F)cnc2n1C [Example I-02, 2-[5-Ethylsulfonyl-6-[3-methyl-6-(1,1,2,2,2-pentafluoroethyl)imidazo[4,5-b]pyridin-2-yl]-2-pyridyl]-4-(4-fluorophenyl)-1,2,4-triazol-3-one] |  | 100% | 100% |  | 100% | 100% | 
3 |  | CCS(=O)(=O)c1ccc(-n2ncn(-c3ccc(C(=O)OC)cc3)c2=O)nc1-c1nc2cc(C(F)(F)C(F)(F)F)cnc2n1C [Example I-03] |  |  | 100% |  |  |  | 90%

Source: patent US20240294533A1, “2-(HET)ARYL-SUBSTITUTED CONDENSED HETEROCYCLE DERIVATIVES AS PEST CONTROL AGENTS” (Bayer Aktiengesellschaft, priority 2021, published 2024)
